From US11253519B2, “Composition used to improve symptoms of autism spectrum disorder, and method using same for improving symptoms of autism spectrum disorder” (RENASCIENCE CO., LTD., priority 2016, dated 2022)

System: ASD patient
Assay: ABC-J aberrant behavior checklist (58 items, each rated 0 no problems to 3 marked; 5 subscales) in ASD patients before and after oral intake of test drug
Assay type: in vivo, human
Set-up: key to ABC-J subscale total score: Hyperactivity / ABC-J subscale total score: Inappropriate Speech: subscale total: sum of its item scores (each 0 = none to 3 = marked)
Experimental: ABC-J is an aberrant behavior checklist available in Japan, which was made by translating and standardizing the revised version of the aberrant behavior checklist developed by American psychologists Aman M. G. and Singh N. N. as a rating scale for quantitatively assessing behavioral disorders associated with intellectual disability and developmental disorder. ABC-J is composed of 58 items that represent problematic behaviors, and a subject is assessed for each item on the following four-rating scale: there are no problems (0 points); the degree of problematic behavior is mild (1 point); the degree of problematic behavior is moderate (2 points); and the degree of problematic behavior is marked (3 points). These 58 items are classified into five subscales: I. Irritability (15 items); II. Lethargy (16 items); III. Stereotypical Behavior (7 items); IV. Hyperactivity (16 items); and V. Inappropriate Speech (4 items). Assessment can be made for each subscale (Ministry of Health, Labour and Welfare, Year 2012 Total Welfare Promotion Project for People with Disabilities, Guidelines for Support for and Assessment of Children with Developmental Disabilities, Asperger Society Japan (a specified non-profit organization), March 2013). […]
An ASD patient (body weight: 45 kg) orally took the test drug detailed below every day for 8 weeks, and their symptoms of ASD were assessed by the diagnostic method described below before (before the start of administration) and 8 weeks after the intake of the drug (8 weeks after the start of administration).
The symptoms of ASD of the ASD patient were assessed based on the scores of ABC-J, PARS-TR, and RSB-R (Japanese version) by a medical doctor who is a researcher of ASD. […]

[1] = case 1, 600 mg/day oral + fursultiamine 25 mg/day, 1 month after start, before administration: 0
[2] = case 1, 600 mg/day oral + fursultiamine 25 mg/day, 1 month after start, before administration: 1
[3] = case 1, 600 mg/day oral + fursultiamine 25 mg/day, 1 month after start, before administration: 2
[4] = case 1, 600 mg/day oral + fursultiamine 25 mg/day, 1 month after start, before administration: 3
[5] = case 2, 600 mg/day oral + fursultiamine 25 mg/day, 17 days after start, before administration: 0
[6] = case 2, 600 mg/day oral + fursultiamine 25 mg/day, 17 days after start, before administration: 1
[7] = case 2, 600 mg/day oral + fursultiamine 25 mg/day, 17 days after start, before administration: 2
[8] = case 2, 600 mg/day oral + fursultiamine 25 mg/day, 17 days after start, before administration: 4
[9] = case 4, 800 mg/day oral + fursultiamine 25 mg/day, 8 weeks

Cc1ncc(CO)c(CN)c1O.Cl.Cl [pyridoxamine dihydrochloride]
ABC-J symptoms across the 5 subscales I to V compared with before taking the drug (case 1, 600 mg/day oral + fursultiamine 25 mg/day, 1 month): significant improvement in symptoms | ABC-J item 2 score (Irritability) [1]: 0 | ABC-J item 3 score (Lethargy) [1]: 0 | ABC-J item 4 score (Irritability) [1]: 1 | ABC-J item 5 score (Lethargy) [1]: 0 | ABC-J item 9 score (Inappropriate Speech) [1]: 0 | ABC-J item 13 score (Hyperactivity) [1]: 0 | ABC-J item 16 score (Lethargy) [1]: 0 | ABC-J item 32 score (Lethargy) [1]: 1 | ABC-J item 33 score (Inappropriate Speech) [1]: 0 | ABC-J item 34 score (Irritability) [1]: 0 | ABC-J item 42 score (Lethargy) [1]: 0 | ABC-J item 47 score (Irritability) [1]: 0 | ABC-J item 50 score (Irritability) [1]: 0 | ABC-J item 52 score (Irritability) [1]: 0 | ABC-J item 53 score (Lethargy) [1]: 0 | ABC-J item 54 score (Hyperactivity) [1]: 0 | ABC-J item 55 score (Lethargy) [1]: 0 | ABC-J item 56 score (Hyperactivity) [1]: 0 | ABC-J item 8 score (Irritability) [2]: 0 | ABC-J item 12 score (Lethargy) [2]: 1 | ABC-J item 17 score (Stereotypical Behavior) [2]: 0 | ABC-J item 18 score (Hyperactivity) [2]: 0 | ABC-J item 19 score (Irritability) [2]: 0 | ABC-J item 20 score (Lethargy) [2]: 1 | ABC-J item 21 score (Hyperactivity) [2]: 0 | ABC-J item 24 score (Hyperactivity) [2]: 0 | ABC-J item 25 score (Irritability) [2]: 0 | ABC-J item 26 score (Lethargy) [2]: 0 | ABC-J item 28 score (Hyperactivity) [2]: 0 | ABC-J item 29 score (Irritability) [2]: 0 | ABC-J item 30 score (Lethargy) [2]: 0 | ABC-J item 31 score (Hyperactivity) [2]: 0 | ABC-J item 36 score (Irritability) [2]: 0 | ABC-J item 37 score (Lethargy) [2]: 0 | ABC-J item 40 score (Lethargy) [2]: 1 | ABC-J item 41 score (Irritability) [2]: 0 | ABC-J item 43 score (Lethargy) [2]: 0 | ABC-J item 46 score (Inappropriate Speech) [2]: 0 | ABC-J item 48 score (Hyperactivity) [2]: 1 | ABC-J item 51 score (Hyperactivity) [2]: 0 | ABC-J item 57 score (Irritability) [2]: 0 | ABC-J item 58 score (Lethargy) [2]: 1 | ABC-J item 1 score (Hyperactivity) [3]: 1 | ABC-J item 7 score (Hyperactivity) [3]: 0 | ABC-J item 10 score (Irritability) [3]: 0 | ABC-J item 14 score (Irritability) [3]: 0 | ABC-J item 15 score (Hyperactivity) [3]: 1 | ABC-J item 22 score (Inappropriate Speech) [3]: 1 | ABC-J item 23 score (Lethargy) [3]: 1 | ABC-J item 27 score (Stereotypical Behavior) [3]: 1 | ABC-J item 35 score (Stereotypical Behavior) [3]: 1 | ABC-J item 38 score (Hyperactivity) [3]: 1 | ABC-J item 39 score (Hyperactivity) [3]: 0 | ABC-J item 44 score (Hyperactivity) [3]: 0 | ABC-J item 45 score (Stereotypical Behavior) [3]: 1 | ABC-J item 49 score (Stereotypical Behavior) [3]: 1 | ABC-J item 6 score (Stereotypical Behavior) [4]: 1 | ABC-J item 11 score (Stereotypical Behavior) [4]: 1 | ABC-J subscale total score: Inappropriate Speech [4]: 1 | ABC-J subscale total score: Lethargy (case 1, 600 mg/day oral + fursultiamine 25 mg/day, 1 month after start, before administration: 10): 6 | ABC-J subscale total score: Irritability (case 1, 600 mg/day oral + fursultiamine 25 mg/day, 1 month after start, before administration: 11): 1 | ABC-J subscale total score: Stereotypical Behavior (case 1, 600 mg/day oral + fursultiamine 25 mg/day, 1 month after start, before administration: 15): 6 | ABC-J subscale total score: Hyperactivity (case 1, 600 mg/day oral + fursultiamine 25 mg/day, 1 month after start, before administration: 19): 4 | ABC-J symptoms across all of the 5 subscales I to V (case 2, 600 mg/day oral + fursultiamine 25 mg/day, 17 days): significantly improved symptoms | ABC-J item 2 score (Irritability) [5]: 0 | ABC-J item 7 score (Hyperactivity) [5]: 0 | ABC-J item 8 score (Irritability) [5]: 0 | ABC-J item 9 score (Inappropriate Speech) [5]: 0 | ABC-J item 11 score (Stereotypical Behavior) [5]: 0 | ABC-J item 13 score (Hyperactivity) [5]: 0 | ABC-J item 17 score (Stereotypical Behavior) [5]: 0 | ABC-J item 18 score (Hyperactivity) [5]: 0 | ABC-J item 19 score (Irritability) [5]: 0 | ABC-J item 27 score (Stereotypical Behavior) [5]: 0 | ABC-J item 28 score (Hyperactivity) [5]: 0 | ABC-J item 29 score (Irritability) [5]: 0 | ABC-J item 31 score (Hyperactivity) [5]: 0 | ABC-J item 32 score (Lethargy) [5]: 0 | ABC-J item 33 score (Inappropriate Speech) [5]: 0 | ABC-J item 34 score (Irritability) [5]: 0 | ABC-J item 36 score (Irritability) [5]: 0 | ABC-J item 38 score (Hyperactivity) [5]: 0 | ABC-J item 39 score (Hyperactivity) [5]: 0 | ABC-J item 41 score (Irritability) [5]: 0 | ABC-J item 44 score (Hyperactivity) [5]: 0 | ABC-J item 47 score (Irritability) [5]: 0 | ABC-J item 48 score (Hyperactivity) [5]: 0 | ABC-J item 49 score (Stereotypical Behavior) [5]: 0 | ABC-J item 50 score (Irritability) [5]: 0 | ABC-J item 51 score (Hyperactivity) [5]: 0 | ABC-J item 52 score (Irritability) [5]: 0 | ABC-J item 53 score (Lethargy) [5]: 0 | ABC-J item 54 score (Hyperactivity) [5]: 0 | ABC-J item 55 score (Lethargy) [5]: 0 | ABC-J item 56 score (Hyperactivity) [5]: 0 | ABC-J item 57 score (Irritability) [5]: 0 | ABC-J item 1 score (Hyperactivity) [6]: 1 | ABC-J item 4 score (Irritability) [6]: 0 | ABC-J item 10 score (Irritability) [6]: 0 | ABC-J item 12 score (Lethargy) [6]: 0 | ABC-J item 15 score (Hyperactivity) [6]: 1 | ABC-J item 20 score (Lethargy) [6]: 0 | ABC-J item 21 score (Hyperactivity) [6]: 0 | ABC-J item 23 score (Lethargy) [6]: 0 | ABC-J item 24 score (Hyperactivity) [6]: 0 | ABC-J item 26 score (Lethargy) [6]: 1 | ABC-J item 30 score (Lethargy) [6]: 0 | ABC-J item 35 score (Stereotypical Behavior) [6]: 0 | ABC-J item 37 score (Lethargy) [6]: 0 | ABC-J item 40 score (Lethargy) [6]: 0 | ABC-J item 43 score (Lethargy) [6]: 0 | ABC-J item 58 score (Lethargy) [6]: 0 | ABC-J item 3 score (Lethargy) [7]: 0 | ABC-J item 5 score (Lethargy) [7]: 1 | ABC-J item 6 score (Stereotypical Behavior) [7]: 1 | ABC-J item 14 score (Irritability) [7]: 0 | ABC-J item 16 score (Lethargy) [7]: 1 | ABC-J item 22 score (Inappropriate Speech) [7]: 1 | ABC-J item 25 score (Irritability) [7]: 0 | ABC-J item 45 score (Stereotypical Behavior) [7]: 1 | ABC-J item 46 score (Inappropriate Speech) [7]: 1 | ABC-J item 42 score (Lethargy) (case 2, 600 mg/day oral + fursultiamine 25 mg/day, 17 days after start, before administration: 3): 2 | ABC-J subscale total score: Hyperactivity [8]: 2 | ABC-J subscale total score: Inappropriate Speech [8]: 2 | ABC-J subscale total score: Stereotypical Behavior (case 2, 600 mg/day oral + fursultiamine 25 mg/day, 17 days after start, before administration: 5): 2 | ABC-J subscale total score: Irritability (case 2, 600 mg/day oral + fursultiamine 25 mg/day, 17 days after start, before administration: 6): 0 | ABC-J subscale total score: Lethargy (case 2, 600 mg/day oral + fursultiamine 25 mg/day, 17 days after start, before administration: 18): 5 | total score of all ABC-J items compared with before administration (case 3, 800 mg/day oral + fursultiamine 25 mg/day, 8 weeks, FIG. 7A): decreased | ABC-J total score of each of the 5 subscales compared with before administration (case 3, 800 mg/day oral + fursultiamine 25 mg/day, 8 weeks, FIG. 7B): decreased | total score of all items of ABC-J compared with before administration (case 4 (no speech), 800 mg/day oral + fursultiamine 25 mg/day, 8 weeks, FIG. 9A): decreased | severity of irritability and self-harming behavior [9]: alleviated the severity | stereotypical behaviors (DSM-5 diagnostic criteria B(1)) [9]: significantly improved | ABC-J subtotal score of the four subscales compared with before administration (case 4, 800 mg/day oral + fursultiamine 25 mg/day, 8 weeks, Inappropriate Speech zero because no speech, FIG. 9B): decreased
